{
  "source": "patent US20250352524A1",
  "about": "“PREVENTION OF METASTATIC OUTGROWTH USING TEAD INHIBITORS” (Georgetown University, priority 2024, published 2025)",
  "key": {"E0771 cells": {"tested_on": "E0771 cells", "test": "Real Time Cell Analysis, proliferation of E0771 cells", "format": "cell-based, mouse", "conditions": "increasing doses of VT107, cell index", "experimental": "E0771 cells were injected into the mammary fat pad of C57BL/6 mice (Johnstone et al., 2015). When primary tumors became palpable at 3 weeks, mice were treated daily with VT107 or vehicle control. Mice weights were monitored throughout treatment (FIG. 8, Panel B). Primary tumors were surgically resected at week 4 and mice were euthanized at week 6 to inspect lungs for metastases (FIG. 9, Panel A)\nCell analysis was done using E-plates from xCELLigence, (Agilent, #5469830001) according to the manufacturer's protocol. For cell cytotoxicity, cancer cells (10,000-25,000 cells per well) were seeded and allowed to attach for 1-2 hours prior to the addition of immune cells and/or drug treatments. For cell proliferation, cancer cells were seeded at 5,000-10,000 cells per well with incremental doses of drug treatments or DMSO as a vehicle control. Cell index was measured by changes in electric impedance at 15 min intervals. TEAD inhibitors were obtained from Vivace therapeutics."}, "DCIS:DCISA4 cells": {"tested_on": "DCIS:DCISA4 cells", "test": "DCIS:DCIS-Δ4 mammary fat pad tumors in NOD/SCID mice, lung metastasis", "format": "in vivo", "conditions": "for growth rate or final volume of the primary tumors: tumors resected at 4 weeks; for outgrowth of cancer cells disseminated to the lungs: immunofluorescent staining of lungs", "experimental": "Parental ductal carcinoma in situ (DCIS) was mixed with genetically-modified DCIS cells expressing AIB1-Δ4 (“DCIS-Δ4”) (see Sharif et al., 2021) at a 4:1 ratio, and the mix was injected into the mammary fat pad (MFP) of the mice. One group of mice received 30 mg/kg of the TEAD inhibitor VT107 (“iTEAD”) and the other group received vehicle treatment by daily oral gavage for 4 weeks. The primary tumors were removed by survival surgery. There was no difference observed in the growth rate or final volume of the primary tumors.\nLung tissues were subjected to RNA-Seq analysis, and Gene Set Enrichment Analysis (GSEA) was used to determine altered signaling pathways upon iTEAD treatment.\nTo further examine the effect of TEAD inhibition on the myeloid compartment of the lung, a human breast cancer cell line MCFDCIS (DCIS) that metastasizes to the lungs when a small population of cells (DCISA4) expresses an isoform of the transcription coactivator amplified in breast cancer 1 (Sharif et al., 2021), was used. DCIS:DCISA4 cells were injected into the mammary fat pad of NOD/SCID mice. Mice were treated daily with VT107. Tumors were surgically removed at week 4 and lungs were monitored for metastases for another 4 weeks without receiving additional treatment (FIG. 13, Panel B). Mouse body weights were measured weekly throughout the course of treatment (FIG. 13, Panel C). […] All mice in the vehicle treated group developed lung metastases as previously reported (Sharif et al., 2021). […] RNA was extracted from lung tissues to further examine the host stroma affected by VT107. RNA sequencing reads from the lungs were aligned to the mouse transcriptome to shed light on the host tissue changes in response to treatment in the presence of seeded cancer cells. […] These observations again show a shift in the inflammatory phenotypes in the microenvironment which could be responsible for the halt in the metastatic outgrowth of seeded cancer cells in the treated group.\nStudies in mice were reviewed and approved by the Georgetown University Animal Care and Use Committee (GUACUC). Animals were randomized to receive vehicle control (DMSO) or VT107. Treatment was formulated in 5% DMSO, 10% solutol and 85% D5W; D5W. 5% glucose and administered daily by oral gavage. Five hundred thousand cells were injected into the mammary fat pad of age-matched 8 weeks old female NOD/SCID or C57/B16 mice purchased from Charles River or Jackson Laboratory, respectively. A hundred thousand 4T1 cells were injected into the tail veins of BALB/c mice purchased from Jackson Laboratory. Experimental timelines, treatment start times and durations are indicated in the figure diagrams and figure legends. Tissues collected were preserved in RNAlater (Thermofisher, #AM7020) or fixed in 10% formalin for histology analysis.\n(§1) The total RNA from tissue or cell lines was extracted using RNeasy Mini Kit (Qiagen, #74104) according to the manufacturer's instructions. Total RNA integrity was assessed with the Agilent 2100 Bioanalyzer. The library preparation and next-generation sequencing (NGS) were performed at Novogene Corporation Inc. (Sacramento, CA, USA). At least triplicate samples per experimental condition were analyzed, raw sequence reads (150 bp paired end, […] average reads/sample) were aligned to the human or mouse transcriptome using STAR, and aligned reads translated to expression counts via featurecounts, followed by a standard edgeR (RRID:SCR_012802) pipeline to identify DEGs under specific conditions. Ingenuity pathway analysis (IPA, RRID:SCR_008653) was undertaken using a list of all differentially expressed genes with a cutoff of p-value less than 0.05 to identify signaling pathways and upstream regulators."}, "peritoneal macrophages": {"tested_on": "peritoneal macrophages", "test": "Gene expression and pathway analysis of peritoneal macrophages treated in vitro", "format": "cell-based, mouse", "text": "To investigate whether the effect of iTEAD treatment on macrophages can enhance their crosstalk with T-cells in the lung microenvironment, peritoneal macrophages+/−iTEAD were first isolated and characterized as a model of resident macrophages for ex vivo experiments (FIG. 14, Panel A). It was observed that treatment with VT107 decreased gene expression of M2-like and fibrosis regulators, Aldh1a1 and Cc117 (Chen et al., 2020), as well as TEAD4 and its downstream target gene Ankrd1. […] The iTEAD pretreated peritoneal macrophages and untreated T-cells isolated from the spleen of tumor naïve mice (FIG. 14, Panel A) were then mixed for 5 hours before collecting the conditioned media for analysis. […] Next, these immune cell mixes were added to 4T1 spheres that were embedded into matrix. […] This effect was reversed by an IL12 neutralizing antibody. No change in cleaved caspase-3 in 4T1 cells in the presence of VT107-treated T-cells or macrophages alone, was detected at 24 hours (FIG. 14, Panels C and D). 4T1 cells were then plated and allowed to attach on electrode-coated arrays to monitor cancer cell viability before the addition of macrophages+/−iTEAD and T-cells. […] This reversal of T-cell cytotoxicity by IL12 antibodies was not observed in VT107-treated T-cells in the absence of macrophages (FIG. 15, Panel E) indicating a critical role for IL12 in the crosstalk between macrophages and T-cells.\nas §1"}, "[1]": {"conditions": "pathway analysis of lung RNA sequencing, VT107 vs vehicle"}, "[2]": {"conditions": "1 μM VT107 for 24 hours, pathway analysis"}},
  "note": "“Also recorded” adds a separate entry of the source.",
  "data": [
    {"substance": "VT107", "values": [
      {"measurement": "proliferation of E0771 in vitro", "setting": "E0771 cells", "result": "did not impact"},
      {"measurement": "development of lung metastases", "setting": "DCIS:DCISA4 cells; 30 mg/kg daily oral gavage for 4 weeks vs vehicle, H&E lung sections, listed as iTEAD", "result": "did not develop lung metastases; also recorded: significantly reduced"},
      {"measurement": "growth rate or final volume of the primary tumors", "setting": "DCIS:DCISA4 cells; 30 mg/kg daily oral gavage for 4 weeks vs vehicle", "result": "similar"},
      {"measurement": "growth rate or final volume of the primary tumors", "setting": "DCIS:DCISA4 cells; 30 mg/kg daily oral gavage for 4 weeks vs vehicle, listed as iTEAD", "result": "no difference; also recorded: no effect"},
      {"measurement": "outgrowth of cancer cells disseminated to the lungs", "setting": "DCIS:DCISA4 cells; 30 mg/kg daily", "result": "failed to grow into overt metastases"},
      {"measurement": "outgrowth of cancer cells disseminated to the lungs", "setting": "DCIS:DCISA4 cells; 30 mg/kg daily, listed as iTEAD", "result": "halted outgrowth; also recorded: unable to outgrow"},
      {"measurement": "mice with no overt lung metastases", "setting": "DCIS:DCISA4 cells; 30 mg/kg daily, lungs monitored 4 weeks after tumor removal, all vehicle mice developed metastases", "result": "4 out of 5"},
      {"measurement": "Toll-like receptor 4 (TLR4) signaling pathway in lung tissue (GSEA)", "setting": "DCIS:DCISA4 cells; RNA-Seq of lung tissue, iTEAD vs vehicle", "result": "drop and downregulation"},
      {"measurement": "human actin relative to mouse actin in lung tissues by qPCR", "setting": "DCIS:DCISA4 cells; VT107-treated mice", "result": "presence of DCIS cells"},
      {"measurement": "myeloid cell activating pathways, acute phase response signaling and PD-L1 immunotherapy pathways in lungs", "setting": "DCIS:DCISA4 cells; [1]", "result": "upregulation"},
      {"measurement": "signaling pathways implicated in pulmonary and hepatic fibrosis, cardiac hypertrophy and liver injury in lungs", "setting": "DCIS:DCISA4 cells; [1]", "result": "downregulated"},
      {"measurement": "cell cycle related pathways", "setting": "peritoneal macrophages; [2]", "result": "upregulated"},
      {"measurement": "disease-related chronic inflammation pathways", "setting": "peritoneal macrophages; [2]", "result": "downregulation"},
      {"measurement": "Pvalb gene expression", "setting": "peritoneal macrophages; 1 μM VT107 for 72 hours", "result": "top upregulated gene"},
      {"measurement": "gene expression of Aldh1a1, Cc117, TEAD4 and Ankrd1", "setting": "peritoneal macrophages; 1 μM VT107 for 72 hours", "result": "decreased"}
    ]}
  ]
}
